Experimental data as given in patent publication US7592025B2, “Vehicles for oral care with magnolia bark extract” (GIC Innovations Company, priority 2005, dated 2009).

How the values were obtained:
[1] = tested on: bacteria from freshly-collected stimulated whole saliva (plaque biofilm); test: Mixed culture saliva biofilm on saliva-coated hydroxyapatite discs, timed exposure to actives; format: cell-based; conditions: for pH (of medium): second series (Table 7)
Description: Although useful to show the comparative effect of Magnolia Bark Extract on biofilm formation and MIC growth, the foregoing test procedure may not effectively mimic the in vivo exposure of an oral care product to a developing plaque biofilm. In an in vivo situation, the active could be exposed to the plaque for a defined period of time at a set frequency (for example, for 5 minutes, three times a day). Therefore, a series of comparative experiments were conducted to mimic the in vivo use of potential active ingredients. To perform the tests the saliva compositions listed below in Tables 2 and 3 were prepared.
A mixed culture system that utilizes the bacteria from freshly-collected stimulated whole saliva was used. Saliva cell pellets were used to inoculate saliva-coated hydroxyapatite (S-HA) discs. The discs were placed in 24-well cell culture plates and incubated for up to 3 days. Biofilms were exposed to actives on days 2 and 3 (starting at 18 hours), and quantified on day 4. The number of bacteria was determined by spectrophotometric absorbance or optical density (OD) at 600 nm. The five phases of the experiment were: pellicle formation; bacterial attachment; biofilm growth; exposure to actives; and bacterial enumeration.
To form the pellicles, HA Discs were ultrasonically washed in deionized water and air-dried, then autoclaved. The discs were placed in a 24-well plate with 1 ml 50% sterile saliva (1 part sterile whole saliva: 1 part saliva buffer, filter sterilize after preparation) for 2 hours on slow agitation at room temperature. […]
After overnight incubation (day 2), discs were exposed to controls and actives. […] On day 4 the discs were removed from the medium, the medium pH was measured to obtain an indication of metabolic activity, and the discs were placed into tubes with 2.5 ml PBS, vortexed for 20 sec, and then placed into the ultrasonic bath for another 20 sec. The suspension was transferred into cuvettes and the bacterial cell density determined by OD measurements at 600 nm. […]

[2] = tested on: incubated saliva; test: MIC of surface active agents and emulsifiers by two-fold serial dilution in nutrient broth; format: cell-based; conditions: for MIC (ppm): incubated saliva, 24 hours at 37° C.; for germ-kill efficacy (in words): assessment of Table 9 results
Description: (§1) To evaluate the germ-kill efficacy and synergist effect when two or more germ-kill actives are combined, testing was performed to determine the ratio of MBE to surface active agent. The germ-kill active and/or surface active agent were dissolved in ethanol or sterile water to give an initial concentration 0.1% to 1%. The solution was diluted with a nutrient broth to give an initial concentration of 0.05% to 0.5%, which was then serially diluted two-fold so that each subsequent dilution contained 50% of the compound concentration of the previous dilution while maintaining a constant level of nutrients for each dilution. These dilutions were inoculated with representative oral microorganisms, or incubated saliva, and incubated for 24 hours at 37° C. For each surface active agent, the lowest dilution that was not turbid was registered as the MIC. The MBC was determined by transferring 10 microliter of liquid from non-turbid tubes to fresh growth media and incubated for 48 hours.

[3] = tested on: S. mutans; test: MIC and fractional inhibitory index (FIC) of combinations by two-fold serial dilution; format: cell-based, Streptococcus mutans; conditions: 24 hours at 37° C., ratio as in label
Description: as §1
(1) where an FIC value of less than 1.0 is synergistic, an FIC between 1.0 and 2.0 is additive, and an FIC greater than 2.0 is antagonistic.

Compound | MIC (ppm) [2] | germ-kill efficacy (in words) [2] | other results
[H]/N=C(\N/C(=N/[H])NCCCCCCNC(=N)NC(=N)Nc1ccc(Cl)cc1)Nc1ccc(Cl)cc1 [CHX, Chlorhexidine] |  |  | pH (of medium, indication of metabolic activity) ([1]; CHX 0.12%, exposure one minute two times a day, day 4): 8.8; pH (of medium) ([1]; CHX 0.1% (1000 ppm)): 8.8
N=C(NCCCCCCNC(=N)NC(=N)Nc1ccc(Cl)cc1)NC(=N)Nc1ccc(Cl)cc1.O=C(O)[C@H](O)[C@@H](O)[C@H](O)[C@H](O)CO.O=C(O)[C@H](O)[C@@H](O)[C@H](O)[C@H](O)CO [Chlorhexidine gluconate, reference compound] | 2 ppm |  | MIC/ppm [3]: 2 ppm
CCCCCCCCCCCCOS(=O)(=O)[O-].[Na+] [SLS, Sodium Lauryl Sulfate] |  | good | pH (of medium) ([1]; SLS 1000 ppm): 5.7
CCCCCCCCCCCC(=O)OCCOCCOCCOCCOCCOCCOCCOCCOCCOCCOCCOCCOCCOCCOCCOCCOCCOCCOCCOCCOCC(OCCOCCOCCOCCOCCOCCOCCOCCOCCOCCOCCOCCOCCOCCOCCOCCOCCOCCOCCOCCO)C1OCC(OCCOCCOCCOCCOCCOCCOCCOCCOCCOCCOCCOCCOCCOCCOCCOCCOCCOCCOCCOCCO)C1OCCOCCOCCOCCOCCOCCOCCOCCOCCOCCOCCOCCOCCOCCOCCOCCOCCOCCOCCOCCO (stereo not shown) [Tween 20, Polysorbate 20] |  | weak or non | 
Cocamidopropyl Betaine |  | good | 
Sodium Brasslate | 500 ppm | moderate | 
Sodium Stearoyl Lactylate | >3000 ppm | weak or non | 
Sucrose Distearate | >500 ppm | weak or non | 
Sucrose Stearate | >500 ppm | weak or non | 
